# Assay results taken from patent US10539566B2, “Use of markers including filamin A in the diagnosis and treatment of prostate cancer” (Berg LLC, priority 2014, dated 2020).
# Assays:
# Type in all cases: cell-based, human
# [1] = tested on: LnCAP, DU145, and PC-3 cells; assay: Quantitative RT-PCR of FLNA, FLNB and KRT19 expression after prostate-relevant stimuli; conditions: 24 h, DU145, PC-3 cells
# Method: Specifically, mRNA was prepared from LnCAP, DU145, and PC-3 cells exposed to hypoxia (1% oxygen; A), TNFα (10 ng/mL; B), or R1881 (1 nM; C) for 24 h. Expression of FLNA, FLNB, and KRT19 was assessed by quantitative RT-PCR, normalized to TBP, and compared to PSA. Values represent means+SEM, N=3. * p<0.05 compared to normoxia/control.
# PC3 cells = assay: Causal protein networks from 2D LC-MS proteomics of prostate cancer cells treated with ubidecarenone; conditions: upon treatment with ubidecarenone
# From the text: An interrogative systems biology based discovery platform (i.e., Interrogative Platform Technology or a.k.a. Interrogative Biology™) disclosed in WO2012119129 (incorporated herein by reference), and shown schematically in FIG. 1, provides new mechanistic insights into understanding mitochondrial role in behavior of prostate cancer cells. The discovery platform involves discovery across a hierarchy of systems including in vitro human cell based models and human serum samples from prostate cancer patients and downstream data integration and mathematical modeling employing an Artificial Intelligence (AI) based informatic module. For cellular models, androgen sensitive LnCAP cell line and metastatic, androgen refractory PC3 cell line were treated with ubidecarenone (coenzyme Q10) in order to engage the mitochondrial machinery. Proteomic signatures were captured using a 2D LC-MS orbitrap technology. Total protein signatures were input to an AI based informatics module to generate causal protein networks (FIG. 2).
# The keratin 8/15 association was lost upon treatment with ubidecarenone, and a direct association of keratins 7 and 15 was established (FIG. 3).
# [2] = tested on: LnCAP cell line and PC3 cell line; assay: Wet lab assays measuring mitochondrial ROS, ATP and caspase 3 activation; conditions: LnCAP and PC3 cells treated with ubidecarenone
compound,measurement,setting,value
C[C@]1(O)CC[C@H]2[C@@H]3CCC4=CC(=O)CCC4=C3C=C[C@@]21C [R1881],"global regulation of FLNA, FLNB, and KRT19 expression (mRNA, normalized to TBP)",[1]; R1881 1 nM,remained unaltered
COC1=C(OC)C(=O)C(C/C=C(\C)CC/C=C(\C)CC/C=C(\C)CC/C=C(\C)CC/C=C(\C)CC/C=C(\C)CC/C=C(\C)CC/C=C(\C)CC/C=C(\C)CCC=C(C)C)=C(C)C1=O [ubidecarenone],direct association of keratins 7 and 15 in causal protein maps,PC3 cells,established
same,keratin 8/15 association in causal protein maps,PC3 cells,lost
same,"intracellular levels of mitochondrial ROS, ATP and caspase 3 activation",[2],confirmed changes in intracellular levels
TNFα,"global regulation of FLNA, FLNB, and KRT19 expression (mRNA, normalized to TBP)",[1]; TNFα 10 ng/mL,remained unaltered
